Experimental data: ChEMBL document CHEMBL6087436, “The novel β-hairpin antimicrobial peptide D-G(RF)3 demonstrates exceptional antibacterial efficacy” (Eur J Med Chem, 2025)
Where a SMILES comes first, the peptide text is derived from it. Bridges are numbered along the chain shown (N, C = ends). [ ]: non-standard residue; d: D form. The star is where a group is joined. X1 = CC[C@H](C)CCCCC(=O)*; Dab = NCC[C@H](N)C(=O)O

Assays:
[1] = Acute toxicity in male balb/c mouse assessed as lethal dose at ip administration; assay type: organism-based; conditions: in vivo
[2] = Acute toxicity in male balb/c mouse assessed as alveolar shrinkage in lung administered intraperitoneally by H and E staining based analysis; assay type: tissue-based; conditions: in vivo, ip
[3] = Acute toxicity in male balb/c mouse assessed as respiratory depression by measuring tissue bleeding in lung administered intraperitoneally by H and E staining based analysis; conditions: in vivo, ip
[4] = Acute toxicity in male balb/c mouse assessed as inflammatory cell infiltration in lung administered intraperitoneally by H and E staining based analysis; assay type: tissue-based; conditions: in vivo, ip
[5] = Acute toxicity in IP dosed male balb/c mouse assessed as animal death; assay type: organism-based; conditions: in vivo
[6] = system: Klebsiella pneumoniae; assay: In vivo antibacterial activity against Klebsiella pneumoniae ATCC 700603 infected in male Balb/c mouse lung infection model assessed as reduction in pulmonary bacterial load at 5 mg/kg, ip measured after 24 hrs (reference value: 3.05 x 10^9 CFU/g); assay type: functional
[7] = system: Klebsiella pneumoniae; assay: Synergistic antibacterial activity against Klebsiella pneumoniae assessed as fractional inhibitory concentration index in presence of rifampin incubated for 18 hrs by checkerboard method; assay type: functional
[8] = system: Pseudomonas aeruginosa; assay: Induction of drug resistance in Pseudomonas aeruginosa ATCC 27853 assessed as fold increase in MIC incubated for 24 hrs and measured under 40 passages; assay type: functional
[9] = system: Escherichia coli; assay: Synergistic antibacterial activity against Escherichia coli assessed as fractional inhibitory concentration index in presence of kanamycin incubated for 18 hrs by checkerboard method; assay type: functional
[10] = system: Staphylococcus aureus; assay: Antibacterial activity against Staphylococcus aureus ATCC 25923 assessed as fold decrease in presence of 150 mM NaCl; assay type: functional
[11] = system: Bacillus subtilis; assay: Antibacterial activity against Bacillus subtilis ATCC 23857 assessed as inhibition of bacterial growth incubated for 18 hrs by microbroth dilution assay; assay type: functional
[12] = system: Staphylococcus aureus; assay: Synergistic antibacterial activity against Staphylococcus aureus assessed as fractional inhibitory concentration index in presence of bacitracin incubated for 18 hrs by checkerboard method; assay type: functional
[13] = system: Klebsiella pneumoniae; assay: In vivo antibacterial activity against Klebsiella pneumoniae ATCC 700603 infected in male Balb/c mouse lung infection model assessed as reduction in pulmonary bacterial load at 10 mg/kg, ip measured after 24 hrs (reference value: 3.05 x 10^9 CFU/g); assay type: functional
[14] = system: Escherichia coli; assay: Antibacterial activity against Escherichia coli ATCC 25922 assessed as inhibition of bacterial growth incubated for 18 hrs by microbroth dilution assay; assay type: functional
[15] = system: Pseudomonas aeruginosa; assay: Synergistic antibacterial activity against Pseudomonas aeruginosa assessed as fractional inhibitory concentration index in presence of imipenem incubated for 18 hrs by checkerboard method; assay type: functional
[16] = system: Pseudomonas aeruginosa; assay: Synergistic antibacterial activity against Pseudomonas aeruginosa assessed as fractional inhibitory concentration index in presence of polymyxin B incubated for 18 hrs by checkerboard method; assay type: functional
[17] = system: Staphylococcus epidermidis; assay: Antibacterial activity against Staphylococcus epidermidis ATCC 12228 assessed as inhibition of bacterial growth incubated for 18 hrs by microbroth dilution assay; assay type: functional
[18] = system: Staphylococcus aureus; assay: Antibacterial activity against Staphylococcus aureus ATCC 25923 assessed as inhibition of bacterial growth incubated for 18 hrs by microbroth dilution assay; assay type: functional
[19] = system: Pseudomonas aeruginosa; assay: Antibacterial activity against Pseudomonas aeruginosa ATCC 27853 assessed as inhibition of bacterial growth incubated for 18 hrs by microbroth dilution assay; assay type: functional
[20] = system: Klebsiella pneumoniae; assay: Additive antibacterial activity against Klebsiella pneumoniae assessed as fractional inhibitory concentration index in presence of kanamycin incubated for 18 hrs by checkerboard method; assay type: functional
[21] = system: Pseudomonas aeruginosa; assay: Synergistic antibacterial activity against Pseudomonas aeruginosa assessed as fractional inhibitory concentration index in presence of rifampin incubated for 18 hrs by checkerboard method; assay type: functional
[22] = system: Klebsiella pneumoniae; assay: Bactericidal activity against Klebsiella pneumoniae ATCC 700603 assessed as bacterial eradication by measuring bacterial counts at 2 times MIC measured after 30 mins by Time killing assay relative to control; assay type: functional; conditions: 0.5 h
[23] = system: Klebsiella pneumoniae; assay: Antibacterial activity against Klebsiella pneumoniae ATCC 700603 assessed as inhibition of bacterial growth incubated for 18 hrs by microbroth dilution assay; assay type: functional
[24] = system: Escherichia coli; assay: Synergistic antibacterial activity against Escherichia coli assessed as fractional inhibitory concentration index in presence of rifampin incubated for 18 hrs by checkerboard method; assay type: functional
[25] = system: Staphylococcus aureus; assay: Antibacterial activity against Staphylococcus aureus ATCC 25923 assessed as fold change in activity in presence of 1 mM MgCl2; assay type: functional
[26] = system: Staphylococcus aureus; assay: Antibacterial activity against Staphylococcus aureus ATCC 25923 assessed as fold change in activity in presence of 2 mM CaCl2; assay type: functional
[27] = system: Staphylococcus aureus; assay: Additive antibacterial activity against Staphylococcus aureus assessed as fractional inhibitory concentration index in presence of ciprofloxacin incubated for 18 hrs by checkerboard method; assay type: functional

In the case of `CC(C)CCCCC(=O)N[C@@H](CCN)C(=O)N[C@H](C(=O)N[C@@H](CCN)C(=O)N[C@H]1CCNC(=O)[C@H]([C@@H](C)O)NC(=O)[C@H](CCN)NC(=O)[C@H](CCN)NC(=O)[C@H](CC(C)C)NC(=O)[C@@H](Cc2ccccc2)NC(=O)[C@H](CCN)NC1=O)[C@@H](C)O.CC[C@H](C)CCCCC(=O)N[C@@H](CCN)C(=O)N[C@H](C(=O)N[C@@H](CCN)C(=O)N[C@H]1CCNC(=O)[C@H]([C@@H](C)O)NC(=O)[C@H](CCN)NC(=O)[C@H](CCN)NC(=O)[C@H](CC(C)C)NC(=O)[C@@H](Cc2ccccc2)NC(=O)[C@H](CCN)NC1=O)[C@@H](C)O` (X1-[Dab]T[Dab][Dab][Dab][dF]L[Dab][Dab]T; lactam 4-C) [listing 1 of 2 here], the LD50 [1] is reported as 17.9 mg/kg, the Activity [2] is reported as “Toxic” and the Activity [3] is reported as “Toxic”. The Activity [4] was “Toxic” and the Activity [5] was “Toxic”.
For `CC(C)CCCCC(=O)N[C@@H](CCN)C(=O)N[C@H](C(=O)N[C@@H](CCN)C(=O)N[C@H]1CCNC(=O)[C@H]([C@@H](C)O)NC(=O)[C@H](CCN)NC(=O)[C@H](CCN)NC(=O)[C@H](CC(C)C)NC(=O)[C@@H](Cc2ccccc2)NC(=O)[C@H](CCN)NC1=O)[C@@H](C)O.CC[C@H](C)CCCCC(=O)N[C@@H](CCN)C(=O)N[C@H](C(=O)N[C@@H](CCN)C(=O)N[C@H]1CCNC(=O)[C@H]([C@@H](C)O)NC(=O)[C@H](CCN)NC(=O)[C@H](CCN)NC(=O)[C@H](CC(C)C)NC(=O)[C@@H](Cc2ccccc2)NC(=O)[C@H](CCN)NC1=O)[C@@H](C)O` (X1-[Dab]T[Dab][Dab][Dab][dF]L[Dab][Dab]T; lactam 4-C) [listing 2 of 2 here], the Activity [6] was 1.48 10^8CFU/g, the “fractional inhibitory concentration index (FICI)” value [7] was 0.375 and the “fold change (FC)” value [8] was 8. For the same compound, the “fractional inhibitory concentration index (FICI)” value [9] was 0.313, the “fold change (FC)” value [10] was -4 and the MIC [11] was 4 µM. For the same compound, the “fractional inhibitory concentration index (FICI)” value [12] was 0.5, the Activity [13] was 2.46 10^8CFU/g and the MIC [14] was 2 µM. For the same compound, the “fractional inhibitory concentration index (FICI)” value [15] was 0.313, the “fractional inhibitory concentration index (FICI)” value [16] was 0.188 and the MIC [17] was 8 µM. The MIC [18] was 8 µM, the MIC [19] was 2 µM and the “fractional inhibitory concentration index (FICI)” value [20] was 0.563. The “fractional inhibitory concentration index (FICI)” value [21] was 0.313, the Activity [22] was 100% and the MIC [23] was 2 µM. For the same compound, the “fractional inhibitory concentration index (FICI)” value [24] was 0.313, the “fold change (FC)” value [25] was -2 and the “fold change (FC)” value [26] was -2. The “fractional inhibitory concentration index (FICI)” value [27] was 0.75.
